This note sets out measurements from patent US11884675B2, “Heterocyclic compounds as triggering receptor expressed on myeloid cells 2 agonists and methods of use” (AMGEN INC., priority 2020, dated 2024).

For this experiment, the target named is hTREM2 (Homo sapiens, UniProt Q9NZC2). Kind of experiment: TREM2 activity by cellular Syk phosphorylation (AlphaScreen/AlphaLISA) in TREM2/DAP12-HEK cells, used for Examples 1-305. The format is cell-based. Set-up: expressed in transfected cells. As to conditions: HEK293 Cells. From the text: In vitro Measurement of Triggering Receptor Expressed on Myeloid Cells 2 activity using cellular phosphorylation of Spleen Tyrosine Kinase (“Syk”) Assays used for Examples 1-305
Pharmacological measurements of TREM2 signaling through DAP12 were made with TREM2 and DAP12 overexpressing HEK293 cells stable cell lines that had been single-cell cloned (“TREM2/DAP12-HEK”). The readout of the TREM2 signaling utilized Perkin Elmer AlphaScreen/AlphaLISA technology monitoring the phosphorylation levels of the Syk kinase. TREM2/DAP12-HEK cell lines were cultured in DMEM-F12 (Corning 10-092-CM) supplemented with 1X Penicillin/Streptomycin (Corning 30-002-CI), 1X GlutaMAX (Gibco 35050-061), and 10% Fetal Bovine Serum (Life Technologies 10099) referred to as “HEK Culture Medium”. Suspensions of TREM2/DAP12-HEK cells were prepared in HEK Culture Medium and dispensed into 384-well poly-D-lysine coated microplates (Corning 354661) at a density of 20,000 cells/well using a Multidrop Combi peristaltic microplate dispenser (Thermo), 25 μL volume of cell suspension/well. Plates containing cells were then incubated for 20 hours in a humidified cell culture incubator at 37° C. with 5% CO2 (Thermo). After incubation, culture medium was removed from all wells of each microplate and replaced with 20 μL of “Assay Buffer” comprised of DMEM-F12 (Corning 10-092-CM) supplemented with 1X Penicillin/Streptomycin (Corning 30-002-CI) and 0.1% Pluronic F-68 Polyol (MP Biomedical 092750049) using a Bravo 384-well pipette-based liquid handling system (Agilent). Assay Buffer contained diluted test articles (in 1% final DMSO concentration for compounds) or 100 nM anti-human/mouse TREM2 antibody (R&D Systems MAB17291) as a positive control, or 100 nM or rat IgG2B isotype Ab as a negative control (R&D Systems MAB0061). The plates were incubated with test articles and controls for 45 minutes at room temperature and then the medium was aspirated/removed from each well of the plates. A Multidrop Combi peristaltic liquid handler (Thermo) was used to dispense 15 μL/well of “Cell Lysis Immunoassay Buffer”. The Cell Lysis Immunoassay Buffer contained M-PER Mammalian Protein Extraction Reagent (Pierce/ThermoFisher 78505), 1X Halt Phosphatase Inhibitor Cocktail (ThermoFisher #78427), 0.1875 nM anti-phospho-Syk (Tyr525/526) (C87C1) rabbit mAb (Cell Signaling Technologies catalog #2710), and 1.5 nM biotinylated Mouse anti-human Syk (4D10) antibody (BD Biosciences, catalog #624008). Plates were incubated for 1 hour at room temperature after the addition of the Cell Lysis Immunoassay Buffer. The Multidrop Combi liquid handler was used to dispense 15 μL of AlphaScreen Acceptor Bead Solution containing 7.5 μg/mL anti-rabbit IgG (Fc specific) AlphaLISA Acceptor Beads (Perkin Elmer AL104R) in 1X Immunoassay buffer (Perkin Elmer AL000F) to each well of the microplates. The plates were incubated for 2 hours at room temperature. Following the incubation with the AlphaLISA Acceptor Bead Solution, a Multidrop Combi liquid handler (Thermo) was used to dispense 15 μL of AlphaScreen Donor Bead Solution containing 30 μg/mL of AlphaScreen Streptavidin Donor beads (Perkin Elmer 6760002B) in 1X Immunoassay buffer (Perkin Elmer AL000F) to each well of the microplates. Microplates were incubated for 2 hours protected from light sources as the AlphaScreen reagents are light sensitive. Once the final incubation was completed, an AlphaScreen signal was acquired from the donor and acceptor beads using an Envision high throughput multi-modal microplate reader (Perkin Elmer) calibrated to the plate type with the AlphaScreen mirror and filter-set in 384-well mode, 680 nanometer excitation wavelength. The total measurement time per well was 550 milliseconds with a 180 millisecond excitation time. […]
Background: In Alpha technology, singlet oxygen from a donor bead excites a nearby acceptor bead.

Bounds are passed on as bounds.

hTREM2, sequence (Q9NZC2 19-230): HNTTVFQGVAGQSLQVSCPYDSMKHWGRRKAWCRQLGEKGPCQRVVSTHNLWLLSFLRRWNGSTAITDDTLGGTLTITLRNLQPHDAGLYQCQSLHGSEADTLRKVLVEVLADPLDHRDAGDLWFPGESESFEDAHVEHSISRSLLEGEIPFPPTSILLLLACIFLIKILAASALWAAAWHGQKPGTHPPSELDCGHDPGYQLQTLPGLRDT
hTREM2, sequence (O43914 22-113 partner): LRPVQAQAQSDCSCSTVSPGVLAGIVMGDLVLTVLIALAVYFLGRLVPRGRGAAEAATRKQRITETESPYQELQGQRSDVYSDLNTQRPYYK

Consider `Cc1nc2nc(N3CCO[C@@H](c4cnn(C)c4)C3)nc([C@H]3CC[C@@H](C)CC3)c2nc1C` [Example 135, 6,7-dimethyl-4-(cis-4-methylcyclohexyl)-2-((2S)-2-(1-methyl-1H-pyrazol-4-yl)-4-morpholinyl)pteridine], for which the EC50 fell in the range of 50 to 500 nM; the “hTREM2 Emax” value is “+ (Emax>45 and ≤100)”.
Turning to `CCc1ccc2c(-c3ccc(F)cc3F)nc(N3CCO[C@@H](c4cnn(C)c4)C3)nc2n1` [Example 167, 4-(2,4-difluorophenyl)-7-ethyl-2((2S)-2-(1-methyl-1H-pyrazol-4-yl)-4-morpholinyl) pyrido[2,3-d]pyrimidine], the EC50 fell in the range of 50 to 500 nM and the “hTREM2 Emax” value was “++++ (Emax>250)”.
Consider `Cc1cc([C@H]2CN(c3nc(-c4ccc(Cl)cc4F)c4ccc(C)nc4n3)CCO2)ccn1` [Example 88, 4-(4-chloro-2-fluorophenyl)-7-methyl-2-((2S)-2-(2-methyl-4-pyridinyl)-4-morpholinyl)pyrido[2,3-d]pyrimidine], for which the EC50 is at most 50 nM and the “hTREM2 Emax” value is given as “++++ (Emax>250)”.
`Cc1ncc([C@H]2CN(c3nc(-c4ccc(Cl)cc4F)c4cc(C)c(C)nc4n3)CCO2)cn1` (single isomer, unassigned) [Example 107]: the EC50 is at most 50 nM; the “hTREM2 Emax” value is “+++ (Emax>150 and ≤250)”.
Consider `Cc1ccc(-c2nc(N3CCO[C@@H](c4ccnc(C)c4)C3)nc3nc(C)ccc23)c(F)c1` [Example 96, 4-(2-fluoro-4-methylphenyl)-7-methyl-2-((2S)-2-(2-methyl-4-pyridinyl)-4-morpholinyl)pyrido[2,3-d]pyrimidine], for which the EC50 is at most 50 nM and the “hTREM2 Emax” value was “++++ (Emax>250)”.
As for `Cc1nc2nc(N3CCO[C@@H](c4cnn(C)c4)C3)nc(C3=CCC(F)(F)CC3)c2nc1C` [Example 125, 4-(4,4-difluoro-1-cyclohexen-1-yl)-6,7-dimethyl-2-((2S)-2-(1-methyl-1H-pyrazol-4-yl)-4-morpholinyl)pteridine], the half-maximal effective concentration (EC50) lay in the range of 50 to 500 nM; the “hTREM2 Emax” value is “+++ (Emax>150 and ≤250)”.
`Cc1cc2c(OC[C@H]3C[C@@H](C(F)(F)F)C3)nc(N3CCO[C@@H](c4cnn(C)c4)C3)nc2nc1C` [Example 109, 6,7-dimethyl-2-((2S)-2-(1-methyl-1H-pyrazol-4-yl)-4-morpholinyl)-4-((cis-3-(trifluoromethyl)cyclobutyl)methoxy)pyrido[2,3-d]pyrimidine] showed a half-maximal effective concentration (EC50) of 3000 to 100000 nM.
With `Cc1cc2c(nc(N3CCO[C@@H](c4cnn(C5CC5)c4)C3)nc2[C@H]2C[C@H](C(F)(F)F)C2)nc1C` [Example 113, 2-((2S)-2-(1-cyclopropyl-1H-pyrazol-4-yl)-4-morpholinyl)-6,7-dimethyl-4-(trans-3-(trifluoromethyl)cyclobutyl)pyrido[2,3-d]pyrimidine], the 50% effective concentration (EC50) is at most 50 nM; the “hTREM2 Emax” value was “++ (Emax>100 and ≤150)”.
Regarding `Cc1ccc2c(-c3ccc(Cl)cc3F)nc(N3CCO[C@@H](c4cnn(C5CC5)c4)C3)nc2n1` [Example 85, 4-(4-chloro-2-fluorophenyl)-2-((2S)-2-(1-cyclopropyl-1H-pyrazol-4-yl)-4-morpholinyl)-7-methylpyrido[2,3-d]pyrimidine], the concentration giving a half-maximal response (EC50) was at most 50 nM; the “hTREM2 Emax” value is “+++ (Emax>150 and ≤250)”.
For the compound `Cc1nc2nc(N3CCO[C@@H](c4cnn(C)c4)C3)cc(-c3ccc(F)cc3F)c2nc1C` [Example 161, 8-(2,4-difluorophenyl)-2,3-dimethyl-6-((2S)-2-(1-methyl-1H-pyrazol-4-yl)-4-morpholinyl)pyrido [2,3-b]pyrazine], the EC50 is at most 50 nM; the “hTREM2 Emax” value was “+++ (Emax>150 and ≤250)”.
With `Cc1cc([C@@H]2C[C@H](c3nc(-c4ccc(F)cc4F)c4nc(C)c(C)nc4n3)CCO2)ccn1` [Example 252, 4-(2,4-difluorophenyl)-6,7-dimethyl-2-((2S,4R)-2-(2-methylpyridin-4-yl)tetrahydro-2H-pyran-4-yl)pteridine], the EC50 is at most 50 nM; the “hTREM2 Emax” value is “+++ (Emax>150 and ≤250)”.
For `Cc1nc2nc([C@H]3CCO[C@H](c4cnn(C)c4)C3)cc(-c3ccc(Cl)cc3F)c2nc1C` (single isomer, unassigned) [Example 186], the concentration giving a half-maximal response (EC50) was 500 to 3000 nM; the “hTREM2 Emax” value is “+++ (Emax>150 and ≤250)”.
Compound `Cc1ccc2c(C34CC(C(F)(F)F)(C3)C4)nc(N3CCO[C@@H](c4cnn(C5CC5)c4)C3)nc2n1` [Example 101, 2-((2S)-2-(1-cyclopropyl-1H-pyrazol-4-yl)-4-morpholinyl)-7-methyl-4-(3-(trifluoromethyl)bicyclo[1.1.1]pentan-1-yl)pyrido[2,3-d]pyrimidine] came in with an EC50 of 3000 to 100000 nM.
With `Cc1nc2nc(N3CC[C@H](C(F)F)C3)nc(-c3ccc(F)cc3F)c2nc1C` [Example 244, (S)-2-(3-(difluoromethyl)pyrrolidin-1-yl)-4-(2,4-difluorophenyl)-6,7-dimethylpteridine], the concentration for a half-maximal effect (EC50) was in the range of 500 to 3000 nM; the “hTREM2 Emax” value was “+++ (Emax>150 and ≤250)”.
Regarding `Cc1nc2nc(N3CCO[C@@H](c4cnn(C)c4)C3)nc([C@H]3C[C@H](C(F)(F)F)C3)c2nc1C` [Example 42, 6,7-dimethyl-2-((2S)-2-(1-methyl-1H-pyrazol-4-yl)-4-morpholinyl)-4-(trans-3-(trifluoromethyl)cyclobutyl)pteridine], the EC50 was at most 50 nM; the “hTREM2 Emax” value was “++ (Emax>100 and ≤150)”.
On to `Cc1cc([C@@H]2C[C@H](c3nc(-c4ccc(Cl)cc4F)c4ncc(C)nc4n3)CCO2)ccn1` (single isomer, unassigned) [Example 172], for which the EC50 fell in the range of 50 to 500 nM and the “hTREM2 Emax” value is listed as “++++ (Emax>250)”.
As for `Cc1nc2nc(N3CCO[C@@H](c4cnn(C)c4)C3)nc(N3CCC[C@H](F)C3)c2nc1C` (single isomer, unassigned) [Example 70], the 50% effective concentration (EC50) was 500 to 3000 nM; the “hTREM2 Emax” value was “+ (Emax>45 and ≤100)”.
Consider `Cc1nc2nc(N3CCO[C@@H](c4cnn(C)c4)C3)nc(N3CCC[C@@H](F)C3)c2nc1C` (single isomer, unassigned) [Example 69], for which the concentration for a half-maximal effect (EC50) is 500 to 3000 nM; the “hTREM2 Emax” value was “+ (Emax>45 and ≤100)”.
For `Cc1ccc(-c2nc([C@H]3CCO[C@@H](c4ccnc(C)c4)C3)nc3nc(C)c(C)cc23)c(F)c1` (single isomer, unassigned) [Example 222], the EC50 was at most 50 nM and the “hTREM2 Emax” value is reported as “++++ (Emax>250)”.
In the case of `Cc1nc2nc(N3CCO[C@@H](c4cnn(C)c4)C3)nc(CCC(F)(F)F)c2nc1C` [Example 40, 6,7-dimethyl-2-((2S)-2-(1-methyl-1H-pyrazol-4-yl)-4-morpholinyl)-4-(3,3,3-trifluoropropyl)pteridine], the EC50 lay in the range of 50 to 500 nM; the “hTREM2 Emax” value was “+ (Emax>45 and ≤100)”.
On to `Cc1nc2cc(N3CCO[C@@H](c4cnn(C)c4)C3)cc(-c3ccc(Cl)cc3F)c2nc1C` [Example 162, 5-(4-chloro-2-fluorophenyl)-2,3-dimethyl-7-((2S)-2-(1-methyl-1H-pyrazol-4-yl)-4-morpholinyl) quinoxaline], for which the EC50 was at most 50 nM and the “hTREM2 Emax” value is “++++ (Emax>250)”.
For `Cc1cc([C@@H]2C[C@@H](c3nc(-c4ccc(F)cc4F)c4cc(C)c(C)nc4n3)CCO2)ccn1` (single isomer, unassigned) [Example 227], the half-maximal effective concentration (EC50) was at most 50 nM; the “hTREM2 Emax” value was “+++ (Emax>150 and ≤250)”.
For the compound `Cc1cc([C@@H]2CN(c3nc4nc(C)c(C)nc4c([C@H]4C[C@H](C(F)(F)F)C4)n3)CCO2)cnn1` [Example 52, 6,7-dimethyl-2-((2R)-2-(6-methyl-4-pyridazinyl)-4-morpholinyl)-4-(trans-3-(trifluoromethyl)cyclobutyl)pteridine], the concentration for a half-maximal effect (EC50) fell in the range of 50 to 500 nM; the “hTREM2 Emax” value is “+++ (Emax>150 and ≤250)”.

What is called EC50 is the midpoint of the concentration-response curve. Read a high EC50 as lower potency in that assay.
